Structures can show the parent of a compound that is named as a salt.
Key:
Axl = target: T1, Axl (Homo sapiens, UniProt P30530); experiment: Phospho-Akt in-cell Western assay (inhibition of Axl activity); format: cell-based
T1 construct: endogenous in cells; host or cells: HeLa cells
T1 sequence (P30530 26-894): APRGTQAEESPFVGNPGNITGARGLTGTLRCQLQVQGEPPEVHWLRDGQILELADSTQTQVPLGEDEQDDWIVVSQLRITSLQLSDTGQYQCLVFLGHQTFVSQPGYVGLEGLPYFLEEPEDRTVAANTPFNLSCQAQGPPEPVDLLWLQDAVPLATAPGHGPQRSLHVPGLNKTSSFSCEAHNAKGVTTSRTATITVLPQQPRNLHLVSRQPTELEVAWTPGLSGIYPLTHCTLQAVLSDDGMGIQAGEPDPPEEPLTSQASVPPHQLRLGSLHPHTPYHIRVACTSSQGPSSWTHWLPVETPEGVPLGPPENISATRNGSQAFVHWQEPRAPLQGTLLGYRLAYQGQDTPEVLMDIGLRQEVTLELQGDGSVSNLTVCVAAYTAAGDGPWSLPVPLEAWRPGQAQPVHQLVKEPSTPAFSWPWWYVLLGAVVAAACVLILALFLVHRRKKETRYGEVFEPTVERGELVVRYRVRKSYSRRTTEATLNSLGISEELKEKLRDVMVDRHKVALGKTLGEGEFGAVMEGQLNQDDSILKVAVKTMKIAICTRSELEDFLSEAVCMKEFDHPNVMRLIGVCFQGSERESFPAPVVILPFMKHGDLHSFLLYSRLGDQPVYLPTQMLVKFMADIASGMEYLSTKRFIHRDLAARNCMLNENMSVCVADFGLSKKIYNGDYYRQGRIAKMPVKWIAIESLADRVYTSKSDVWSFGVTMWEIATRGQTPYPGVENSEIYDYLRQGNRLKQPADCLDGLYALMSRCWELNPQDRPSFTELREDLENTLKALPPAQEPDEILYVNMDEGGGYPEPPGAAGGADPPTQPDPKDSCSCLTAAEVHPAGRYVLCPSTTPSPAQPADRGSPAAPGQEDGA
How it was run: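 HeLa cells on poly-L-lysine, starved 24 h in 0.5% FCS DMEM with Axl/Fc 500 ng/mL, pre-treated with compound 1 h at 37° C. Axl stimulated 5 min by anti-Axl/anti-mouse antibody cross-linking. Fixed cells probed with anti-phospho-Akt and HRP secondary, chemiluminescence read.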

[1] = inhibition of Axl activity, Table 1
[2] = inhibition of Axl activity, phospho-Akt in-cell Western assay, Table 1
[3] = Table 3, Hela cells, Axl antibody cross-linking stimulation, phospho-Akt chemiluminescence

Structure (SMILES) | melting point [°C] | IC50 (Axl; [1]) [nM] | IC50 (Axl; [2]) [nM] | also measured
Nc1nc(Nc2cccc(OCCN3CCOCC3)c2)nn1C(=O)c1ccccc1 (as salt: salt) [(Ia-26), 5-amino-3-[3-[2-(morpholin-4-yl)ethoxy]phenylamino]-1-phenylcarbonyl-1H-1,2,4-triazole, hydrogen chloride salt] | 236.6 to 242.1 | – | – | –
Cc1ccc(C(=O)n2nc(Nc3cccc(OCC#N)c3)nc2N)cc1 [(Ia-5), 5-amino-3-[3-(cyanomethoxy)phenylamino]-1-(4-(methyl)phenyl)carbonyl-1H-1,2,4-triazole] | 236 to 241 | – | – | –
Cc1ccccc1C(=O)n1nc(Nc2cccc(OCC#N)c2)nc1N [(Ia-8), 5-amino-3-[3-(cyanomethoxy)phenylamino]-1-(2-(methyl)phenyl)carbonyl-1H-1,2,4-triazole] | 204.5 to 207.9 | > 20000 | – | –
Cc1cccc(C(=O)n2nc(Nc3cccc(OCC#N)c3)nc2N)c1 [(Ia-9), 5-amino-3-[3-(cyanomethoxy)phenylamino]-1-(3-(methyl)phenyl)carbonyl-1H-1,2,4-triazole] | 220 to 224.4 | > 20000 | – | –
CC(C)Oc1ccc(C(=O)n2nc(Nc3ccc(OCc4ccccc4)cc3)nc2N)cc1 [(Ia-10), 5-amino-3-[4-(benzyloxy)phenylamino]-1-(4-(iso-propoxy)phenyl)carbonyl-1H-1,2,4-triazole] | 79 to 81 | > 20000 | – | –
CC(C)Oc1ccc(C(=O)n2nc(Nc3ccc(O)cc3)nc2N)cc1 [(Ia-11), 5-amino-3-[4-(hydroxy)phenylamino]-1-(4-(iso-propoxy)phenyl)carbonyl-1H-1,2,4-triazole] | 229 to 234 | 1000 to 10000 | – | –
CC(C)Oc1ccc(C(=O)n2nc(Nc3ccc(OCC#N)cc3)nc2N)cc1 [(Ia-12), 5-amino-3-[4-(cyanomethoxy)phenylamino]-1-(4-(iso-propoxy)phenyl)carbonyl-1H-1,2,4-triazole] | 182.9 to 186.1 | 1000 to 10000 | – | –
CC(C)Oc1ccc(C(=O)n2nc(Nc3cccc(O)c3)nc2N)cc1 [(Ia-13), 5-amino-3-[3-(hydroxy)phenylamino]-1-(4-(iso-propoxy)phenyl)carbonyl-1H-1,2,4-triazole] | 204.2 to 211.9 | 1000 to 10000 | – | –
CC(C)Oc1cccc(C(=O)n2nc(Nc3cccc(O)c3)nc2N)c1 [(Ia-16), 5-amino-3-[3-(hydroxy)phenylamino]-1-(3-(iso-propoxy)phenyl)carbonyl-1H-1,2,4-triazole] | 211.3 to 214.8 | 1000 to 10000 | – | –
CC(C)Oc1cccc(C(=O)n2nc(Nc3cccc(OCc4ccccc4)c3)nc2N)c1 [(Ia-17), 5-amino-3-[3-(benzyloxy)phenylamino]-1-(3-(iso-propoxy)phenyl)carbonyl-1H-1,2,4-triazole] | 131.1 to 132.4 | > 20000 | – | –
Cc1cccc(C(=O)n2nc(Nc3cccc(OCC(=O)NCCN4CCOCC4)c3)nc2N)c1 [(Ia-18), 5-amino-1-(3-methylphenyl)carbonyl-3-[3-[2-(4-morpholinyl)ethylaminocarbonylmethoxy]phenyl]amino-1H-1,2,4-triazole] | 145 to 147 | 1000 to 10000 | – | –
Cc1cccc(C(=O)n2nc(Nc3cccc(OCC(=O)N4CCN(C(=O)OC(C)(C)C)CC4)c3)nc2N)c1 [(Ia-19)] | 206 to 208 | > 20000 | – | –
CC(C)Oc1ccc(C(=O)n2nc(Nc3ccc(OCCCN4CCCC4)cc3)nc2N)cc1 [compound #10, 5-Amino-1-(4-(iso-propoxy)phenyl)carbonyl-3-[4-[3-(pyrrolidin-1-yl)propoxy]phenylamino]-1H-1,2,4-triazole] | – | – | < 1000 | –
CN(C)c1cccc(C(=O)n2nc(Nc3ccc(OCCN4CCCCC4)cc3)nc2N)c1 [compound #11, 5-Amino-1-(3-(dimethylamino)phenyl)carbonyl-3-[4-[2-(piperidin-1-yl)ethoxy]phenylamino]-1H-1,2,4-triazole] | – | – | < 1000 | –
Cc1ccc(C(=O)n2nc(Nc3ccc(OCCN4CCCC4)cc3)nc2N)cc1 [compound #12, 5-Amino-1-(4-methylphenyl)carbonyl-3-[4-[2-(pyrrolidin-1-yl)ethoxy]phenylamino]-1H-1,2,4-triazole] | – | – | < 1000 | –
Nc1nc(Nc2ccc(OCCN3CCCCC3)cc2)nn1C(=O)c1ccc2c(c1)OCO2 [compound #13, 5-Amino-1-(1,3-benzodioxol-5-yl)carbonyl-3-[4-[2-(piperidin-1-yl)ethoxy]phenylamino]-1H-1,2,4-triazole] | – | – | < 1000 | –
COc1cccc(C(=O)n2nc(Nc3ccc(OCCN4CCCC4)cc3)nc2N)c1 [compound #14, 5-Amino-1-(3-methoxyphenyl)carbonyl-3-[4-[2-(pyrrolidin-1-yl)ethoxy]phenylamino]-1H-1,2,4-triazole] | – | – | < 1000 | –
CC(C)(C)Oc1ccc(C(=O)n2nc(Nc3ccc(OCCCN4CCCC4)cc3)nc2N)cc1 [compound #15, 5-Amino-3-[4-[3-(pyrrolidin-1-yl)propoxy]phenylamino]-1-(4-(tert-butoxy)phenyl)carbonyl-1H-1,2,4-triazole] | – | – | < 1000 | –
Nc1nc(Nc2ccc(OCCN3CCCC3)cc2)nn1C(=O)c1ccc2c(c1)OCO2 [compound #16, 5-Amino-1-(1,3-benzodioxol-5-yl)carbonyl-3-[4-[2-(pyrrolidin-1-yl)ethoxy]phenylamino]-1H-1,2,4-triazole] | – | – | < 1000 | –
Nc1nc(Nc2ccc(OCCN3CCCC3)cc2)nn1C(=O)c1ccc2c(c1)OCCO2 [compound #17, 5-Amino-1-(1,4-benzodioxan-6-yl)carbonyl-3-[4-[2-(pyrrolidin-1-yl)ethoxy]phenylamino]-1H-1,2,4-triazole] | – | – | < 1000 | –
CC(C)(C)Oc1cccc(C(=O)n2nc(Nc3ccc(OCCN4CCCC4)cc3)nc2N)c1 [compound #18, 5-Amino-3-[4-[2-(pyrrolidin-1-yl)ethoxy]phenylamino]-1-(3-(tert-butoxy)phenyl)carbonyl-1H-1,2,4-triazole] | – | – | < 1000 | –
COc1cc(OC)cc(C(=O)n2nc(Nc3ccc(OCCN4CCCCC4)cc3)nc2N)c1 [compound #19, 5-Amino-1-(3,5-(dimethoxy)phenyl)carbonyl-3-[4-[2-(piperidin-1-yl)ethoxy]phenylamino]-1H-1,2,4-triazole] | – | – | < 1000 | –
CN(C)c1cccc(C(=O)n2nc(Nc3ccc(OCCCN4CCCC4)cc3)nc2N)c1 [compound #20, 5-Amino-1-(3-(dimethylamino)phenyl)carbonyl-3-[4-[3-(pyrrolidin-1-yl)propoxy]phenylamino]-1H-1,2,4-triazole] | – | – | < 1000 | –
COc1ccc(C(=O)n2nc(Nc3ccc(OCCN4CCCCC4)cc3)nc2N)cc1OC [compound #21, 5-Amino-1-(3,4-(dimethoxy)phenyl)carbonyl-3-[4-[2-(piperidin-1-yl)ethoxy]phenylamino]-1H-1,2,4-triazole] | – | – | < 1000 | –
COc1cc(OC)cc(C(=O)n2nc(Nc3ccc(OCCN4CCCC4)cc3)nc2N)c1 [compound #22, 5-Amino-1-(3,5-(dimethoxy)phenyl)carbonyl-3-[4-[2-(pyrrolidin-1-yl)ethoxy]phenylamino]-1H-1,2,4-triazole] | – | – | < 1000 | –
Nc1nc(Nc2ccc(OCCN3CCCC3)cc2)nn1C(=O)c1ccc(OC(F)(F)F)cc1 [compound #23, 5-Amino-3-[4-[2-(pyrrolidin-1-yl)ethoxy]phenylamino]-1-(4-(trifluoromethoxy)phenyl)carbonyl-1H-1,2,4-triazole] | – | – | < 1000 | –
CC(C)(C)Oc1cccc(C(=O)n2nc(Nc3ccc(OCCCN4CCCC4)cc3)nc2N)c1 [compound #24, 5-Amino-3-[4-[3-(pyrrolidin-1-yl)propoxy]phenylamino]-1-(3-(tert-butoxy)phenyl)carbonyl-1H-1,2,4-triazole] | – | – | < 1000 | –
Nc1nc(Nc2ccc(OCCN3CCCC3)cc2)nn1C(=O)c1ccc2nc[nH]c2c1 [compound #25, 5-Amino-1-(benzimidazol-6-yl)carbonyl-3-[4-[2-(pyrrolidin-1-yl)ethoxy]phenylamino]-1H-1,2,4-triazole] | – | – | – | IC50 (Axl; [3]): 1000 to 10000 nM
CC(C)Oc1ccc(C(=O)n2nc(Nc3ccc(N4CCCCC4)cc3)nc2N)cc1 [compound #26, 5-Amino-1-(4-(iso-propoxy)phenyl)carbonyl-3-[4-(piperidin-1-yl)phenylamino]-1H-1,2,4-triazole] | – | – | 1000 to 10000 | –
Cc1ccc(C(=O)n2nc(Nc3ccc(OCCN4CCCC4)cc3)nc2N)cn1 [compound #28, 5-Amino-1-(6-(methyl)pyridin-3-yl)carbonyl-3-[4-[2-(pyrrolidin-1-yl)ethoxy]phenylamino]-1H-1,2,4-triazole] | – | – | – | IC50 (Axl; [3]): 1000 to 10000 nM
